Assay results: patent US7098219B2, “Inhibitors of cellular efflux pumps of microbes” (Wockhart Limited, priority 2000, dated 2006)

What follows are molecules tested on Staphylococcus aureus 1199 B NorA+. Settings: combination with ciprofloxacin, broth microdilution checkerboard, 35° C. 20 hours; FIC index ≦0.5 synergistic, 0.5–2.0 additive, >2.0 antagonistic.
Type: cell-based
From the text: Testing method for inhibition of the efflux pump of Staphylococcus aureus 1199B NorA^+
[…]. Victor Lorian, Md., Fourth edition 1996, pp 333–338).
In short, the assay involves broth microdilution method performed as recommended by the National Committee for Clinical Laboratory Standards (NCCLS) 1997 (Methods for Dilution of Antimicrobial Susceptibility Tests for Bacteria that Grow Aerobically, Fourth edition; Approved Standard, NCCLS document M7-A4, vol. 17, No. 2). The test organism used for the assay is Staphylococcus aureus 1199 B NorA^+.
[…]. Stock solutions of the efflux pump inhibitors tested are prepared in dimethyl sulfoxide (DMSO) at a final concentration of 5 mg/ml. Stock solutions are further diluted in Mueller Hinton Broth as per the need of the assay. Ciprofloxacin is dissolved in water.
The checkerboard assay is performed in microtiter plates. […] The efflux pump inhibitor is diluted in the Y-axis, each row containing an equal concentration of efflux pump inhibitor. The result of these manipulations is that each well of the microtiter plate contains a unique combination of concentrations of the two agents. Bacterial inoculum is added at 5×10^5 CFU/ml. Microtiter plates are incubated at 35° C. for 20 hours. Reading is done by visibly noting turbidity and confirmed using a microtiter plate reader (Molecular Devices). The FIC index is calculated as
(A) is the concentration of the experimental efflux pump inhibitor in the well that is the lowest inhibitory concentration in the Y-axis. (MICA) is the MIC of Staphylococcus aureus to experimental efflux pump inhibitor alone. FICA is the fractional inhibitory concentration of an experimental efflux pump inhibitor. […] (Antimicrobial Combination In Antibiotics in Laboratory Medicine, Ed. Victor Lorian, Md., Fourth edition 1996, pp 333–338).

Row | Molecule | FIC INDEX
1 | CCn1cc(C(=O)O)c(=O)c2cc(F)c(N3CCc4ccccc4C3)cc21 [1 (NorA), 1-Ethyl-6-fluoro-1,4-dihydro-7-(1′,2′,3′,4′-tetrahydroisoquinolin-2-yl)-4-oxo-quinoline-3-carboxylic acid] | 0.314
2 | CCOC(=O)c1cc(F)c(NC2CCN(c3c(F)c(N)c4c(=O)c(C(=O)O)cn(C5CC5)c4c3F)CC2)c(F)c1F [Bis compound 10, N-1-{7-(1-cyclopropyl-6,8-difluoro-5-amino-1,4-dihydro-4-oxo-quinolone-3-carboxylic acid)}-N-4-amino-{ethyl 2,3,6-trifluorophenyl-4-carboxylate}-piperidine] | 0.304
3 | CC1CC(N)CN1c1cc2c(cc1F)c(=O)c(C(=O)O)cn2C1CC1 (stereo not drawn) [Example 10 (NorA), 1-Cyclopropyl-6-fluoro-1,4-dihydro-7-(3′-amino-5′-methylpyrrolidin-1-yl)-4-oxo-quinoline-3-carboxylic acid] | 0.314
4 | CCn1cc(C(=O)O)c(=O)c2c(N)c(F)c(N3CCC(NC(C)=O)CC3)c(F)c21 [Example 7 (NorA), 5-Amino-1-ethyl-6,8-difluoro-1,4-dihydro-7-{4′-(acetamido)piperidin-1-yl}-4-oxo-quinoline-3-carboxylic acid] | 0.312
5 | CC1COCC(C)N1c1c(F)c(N)c2c(=O)c(C(=O)O)cn(-c3ccccc3C(F)(F)F)c2c1F (stereo not drawn) [Example 41 (NorA), 5-Amino-1-(2′-trifluoromethylphenyl)-6,8-difluoro-1,4-dihydro-7-(3′,5′-dimethylmorpholin-1-yl)-4-oxo-quinoline-3-carboxylic acid] | 0.384
6 | CC(=O)NC1CC(C)N(c2cc3c(cc2F)c(=O)c(C(=O)O)cn3C2CC2)C1 (stereo not drawn) [9 (NorA), 1-Cyclopropyl-6-fluoro-1,4-dihydro-7-(3′-acetamido-5′-methylpyrrolidin-1-yl)-4-oxo-quinoline-3-carboxylic acid] | 0.314
7 | C[C@H]1CCc2c(N3CCC(O)CC3)c(F)cc3c(=O)c(C(=O)OC4CCN(C)CC4)cn1c23 [Example 56 (NorA), (S)-(−)-N-methylpiperidino-9-fluoro-6,7-dihydro-8-(4′-hydroxypiperidin-1-yl)-5-methyl-1-oxo-1H,5H-benzo[i,j]quinolizine-2-carboxylic acid] | 0.180
8 | O=C(O)c1cn(C2CC2)c2nc(NC3CCN(c4nc5c(cc4F)c(=O)c(C(=O)O)cn5C4CC4)C3)c(F)cc2c1=O (stereo not drawn) [Bis compound 2] | 0.282
9 | 5-Amino-1-ethyl-6,8-difluoro-1,4-dihydro-7-[(1∝,5∝,6∝)-6′-(N-t-butoxycarbonylamino)-3-azabicyclo[3.1.0]-hex-3-yl}-4-oxo-quinoline-3-carboxylic acid [Example 8 (NorA)] | 0.314
10 | Nc1c(F)c(N2CCOCC2)c(F)c2c1c(=O)c(C(=O)O)cn2-c1ccccc1C(F)(F)F [Example 40 (NorA), 5-Amino-1-(2′-trifluoromethylphenyl)-6,8-difluoro-1,4-dihydro-7-(morpholin-1-yl)-4-oxo-quinoline-3-carboxylic acid] | 0.314
11 | CC1CC(C)CN(c2cc3c(cc2F)c(=O)c(C(=O)O)cn3C2CC2)C1 (stereo not drawn) [Example 13 (NorA), 1-Cyclopropyl-6-fluoro-1,4-dihydro-7-(3′,5′-dimethylpiperidin-1-yl)-4-oxo-quinoline-3-carboxylic acid] | 0.314
12 | O=C(O)c1cn(-c2ccc(F)cc2F)c2nc(NC3CCN(c4cc5c(cc4F)c(=O)c(C(=O)O)cn5C4CC4)C3)c(F)cc2c1=O (stereo not drawn) [Bis compound 1, N-1-{7-(1-cyclopropyl-6-fluoro-1,4-dihydro-4-oxo-quinoline-3-carboxylic acid)}-N-3-amino-{7-(1-(2,4-difluorophenyl)-6-fluoro-1,4-dihydro-4-oxo-1,8-naphthyridine-3-carboxylic acid)}-pyrrolidine] | 0.253
13 | Cc1c(F)c(N2CCC(Nc3c(F)c(N)c4c(=O)c(C(=O)O)cn(C5CC5)c4c3F)C2)cc2c1c(=O)c(C(=O)O)cn2C1CC1 (stereo not drawn) [Bis compound 7, N-1-{7-(1-cyclopropyl-6-fluoro-5-methyl-1,4-dihydro-4-oxo-quinolone-3-carboxylic acid)}-N-3-amino{7-(1-cyclopropyl-6,8-difluoro-5-amino-1,4-dihydro-4-oxo-quinoline-3-carboxylic acid)}-pyrrolidine] | 0.304
14 | CN1CCN(c2cc3c(cc2F)c(=O)c(C(=O)O)cn3-c2ccccc2C(F)(F)F)CC1(C)C [Example 39 (NorA), 1-(2′-Trifluoromethylphenyl)-6-fluoro-1,4-dihydro- -7-(3′,3′,4′-trimethylpiperazin-1-yl)-4-oxo-quinoline-3-carboxylic acid] | 0.282
15 | CN(C)C1CCN(c2cc3c(cc2F)c(=O)c(C(=O)O)cn3C2CC2)CC1 [Example 12 (NorA), 1-Cyclopropyl-6-fluoro-1,4-dihydro-7-(4′-(N-dimethylamino)piperidin-1-yl)-4-oxo-quinoline-3-carboxylic acid] | 0.188
16 | C[C@H](NC(=O)OC(C)(C)C)C(=O)N[C@@H](C)C(=O)NC1CCN(c2c(F)c(N)c3c(=O)c(C(=O)O)cn(C4CC4)c3c2F)CC1 [Example 29 (NorA), 5-Amino-1-cyclopropyl-6,8-difluoro-1,4-dihydro-7-{4′-(-t-butoxycarbonylamino-L-Ala-L-Ala)aminopiperidin-1-yl}-4-oxo-quinoline-3-carboxylic acid] | 0.320
17 | CCn1cc(C(=O)O)c(=O)c2cc(F)c(N3CCN(CCN4CCOC4=O)CC3)c(F)c21 [Example 3 (NorA), 1-Ethyl-6,8-fluoro-1,4-dihydro-7-(4′-{2′-(2′-oxazolidin-1yl)ethyl}piperazin-1-yl)-4-oxo-quinoline-3-carboxylic acid] | 0.188
18 | COc1c(N2CC(C)C(O)C(C)C2)c(F)cc2c(=O)c(C(=O)O)cn(C3CC3)c12 (stereo not drawn) [Example 22 (NorA), 1-Cyclopropyl-6-fluoro-8-methoxy-1,4-dihydro-7-(4′-hydroxy-3′,5′-dimethylpiperidin-1-yl)-4-oxo-quinoline-3-carboxylic acid] | 0.370
19 | CC1COCC(C)N1c1c(F)c(N)c2c(=O)c(C(=O)O)cn(C3CC3)c2c1F (stereo not drawn) [Example 35 (NorA), 5-Amino-1-cyclopropyl-6,8-difluoro-1,4-dihydro-7-(3′,5′-dimethylmorpholin-1-yl)-4-oxo-quinoline-3-carboxylic acid] | 0.314
20 | Nc1c(F)c(N2CCC(CNC3CCNCC3)CC2)c(F)c2c1c(=O)c(C(=O)O)cn2C1CC1 [Example 33 (NorA)] | 0.314
21 | CC1(C)CN(c2c(F)c(N)c3c(=O)c(C(=O)O)cn(C4CC4)c3c2F)CCC1O (stereo not drawn) [Example 31 (NorA), 5-Amino-1-cyclopropyl-6,8-difluoro-1,4-dihydro-7-(4′-hydroxy-3′,3′-dimethyl-piperidin-1-yl)-4-oxo-quinoline-3-carboxylic acid] | 0.304
